According to EP2251010A1, “Use of thiabendazole and derivatives thereof for the therapy of neurological conditions” (Sygnis Bioscience GmbH & Co. KG, priority 2009, dated 2010):
Like-named read-outs stand apart in the source and are kept apart here.

Experiments:
[1] = mouse; cited from earlier work
[2] = man, oral, in 48 hours; cited from earlier work
[3] = system: primary cortical neurons; experiment: In vitro anti-apoptosis assay (Caspase-Glo 3/7) on primary cortical neurons with staurosporine; assay type: cell-based, Wistar rat; conditions: compound 1 µM plus staurosporine 0,5 µM, sham 11 %, Fig. 6
Excerpt: (§1) Neuroprotection is attainable via the inhibition of apoptosis of affected neurons. The anti-apoptotic effect of thiabendazole and its derivatives can be assayed in vitro by measuring the caspase-3 and caspase-7 activities. These members of the cysteine aspartic acid-specific protease (caspase) family play key effector roles in apoptosis in mammalian cells. Cortical neurons have to be isolated and subsequently cultivated in a suitable culture medium. […] Parallel approaches with staurosporine alone and sham treatment of the cells serve as […]. The assay allows evaluating whether the test compound can compensate either completely or partially for the apoptotic effect of staurosporine.
(§2) The neuroprotective effect of compounds can be assayed in vitro by measuring caspase-3 and caspase-7 activities. These members of the cysteine aspartic acid-specific protease (caspase) family play a key effector role in apoptosis in mammalian cells.
These cells were isolated from twelve to fourteen cortices dissected from Wistar rat embryos on E18. The tissue was dissociated using 0,25 mg/ml trypsin, 0,1 mg/ml EDTA (Sigma), 100 µg/ml DNase (Roche Diagnostics Corp.) in HBSS. The digestion was stopped using 3 parts MEM-medium containing 10 % fetal calf serum, 0,45 % D-(+)glucose, 1 mM sodium-pyruvate and 0,25 µM glutamate. The cells were singularized by 10 strokes with a burnished Pasteur-pipette. After centrifugation, the cell pellet was dissolved in 10 ml medium and plated at a density of 30000 cells per well on a 96-well plate coated with poly-L-lysine for caspase-assays. […] Incubation with staurosporine (SP; 0,5 µM) alone served as positive control and incubation with vehicle (sham) served as negative control.

[4] = system: SH-SY5Y neuronal cells; experiment: In vitro viability assay (constitutive Renilla luciferase reporter); assay type: cell-based, human
Experimental: The viability assay allows for further assessment of test compounds regarding their effect on cells such as neurons. Therefore, a stably transfected cell line (e.g. SH-SY5Y cells) with a reporter construct (e.g. a luciferase construct) has to be incubated with the test compound and in parallel with positive and negative controls (e.g. staurosporine and sham, respectively). Subsequently, the signal generated by the reporter construct serves as a readout for the viability of the cells in the presence of the test compound. The assay enables the evaluation of potential neurotoxic effects of the test compound itself.
The effect of a compound on the viability of neuronal cells can be assayed in vitro by measuring the survival of neuronal cells transfected with a reporter construct under a constitutive promoter. SH-SY5Y neuronal cells stably transfected with a Renilla luciferase construct under the SV40 promoter were seeded in 96-well plates at a density of 2,5 x 10^4 cells per well. Following overnight incubation the cells were stimulated with medium containing thiabendazole or vehicle. Staurosporine (0,5 µM) served as positive control. The Renilla luciferase activity was measured 5 h later using a luminometer (Berthold Technologies, Mithras LB 940). Thiabendazole was tested in a range from 0,8 µM to 50 µM final concentration.
Analogously, thiabendazole (A; Sigma) and various derivatives thereof (2-(1,3-thiazol-5-yl)-benzimidazole (B; ChemBridge Corporation), 4-(benzimidazol-2-yl)-1,3-thiazol-2-amine (C; ChemBridge Corporation), 2-(2-thienyl)-benzimidazole (D; ChemBridge Corporation), or 2-(1,3-thiazol-4-yl)-benzimidazole-5-ol (E; Witega GmbH), Fig. 8) have been analysed for their effect on the viability of neuronal cells. The compounds were tested in a final concentration of 1 µM and of 10 µM.

[5] = rat; cited from earlier work
[6] = pH 7.0; cited from earlier work
[7] = rabbit; cited from earlier work
[8] = molecular target: cytochrom P450 1A2 (CyP1A2) (Homo sapiens, UniProt P05177); conditions: cited from earlier work
[9] = system: SH-SY5Y cells; experiment: In vitro anti-apoptosis assay (Caspase-Glo 3/7) on SH-SY5Y cells with staurosporine; assay type: cell-based, human
[10] = system: SH-SY5Y cells; experiment: as above; assay type: cell-based, human; conditions: 5h, staurosporine alone = 100 %, sham 10 %
Excerpt: as §1, §2
The human neuroblastoma cell-line SH-SY5Y (American Type Culture Collection) maintained in DMEM with high glucose supplemented with 20% FBS was used for the apoptosis assay. Alternatively one can analyse the apoptosis of primary cortical neurons which can be isolated from E18 rats and subsequently cultivated in suitable culture medium. 2,5 x 10^4 SH-SY5Y cells were seeded in 96-well plates and stimulated 24 h later with thiabendazole or vehicle in the presence of the apoptosis inducing compound staurosporine (0,1 µM, Calbiochem). After 5h incubation at 37 °C, caspase-Glo 3/7 reagent (Promega) containing luciferase and luminogenic substrate was added to the cells. The cleavage of the substrate by caspase-3 and caspase-7 was detected 30 min later using a luminometer (Berthold Technologies, Mithras LB 940). The Luminescence which is proportional to the amount of caspase activity serves as a measure for the apoptosis of the treated neurons. Thiabendazole was tested in a range from 0,8 µM to 100 µM final concentration.
Incubation with staurosporine (SP; 0,5 µM) alone served as positive control and incubation with vehicle (sham) served as negative control.

cytochrom P450 1A2 (CyP1A2), sequence (P05177 whole entry, species assumed): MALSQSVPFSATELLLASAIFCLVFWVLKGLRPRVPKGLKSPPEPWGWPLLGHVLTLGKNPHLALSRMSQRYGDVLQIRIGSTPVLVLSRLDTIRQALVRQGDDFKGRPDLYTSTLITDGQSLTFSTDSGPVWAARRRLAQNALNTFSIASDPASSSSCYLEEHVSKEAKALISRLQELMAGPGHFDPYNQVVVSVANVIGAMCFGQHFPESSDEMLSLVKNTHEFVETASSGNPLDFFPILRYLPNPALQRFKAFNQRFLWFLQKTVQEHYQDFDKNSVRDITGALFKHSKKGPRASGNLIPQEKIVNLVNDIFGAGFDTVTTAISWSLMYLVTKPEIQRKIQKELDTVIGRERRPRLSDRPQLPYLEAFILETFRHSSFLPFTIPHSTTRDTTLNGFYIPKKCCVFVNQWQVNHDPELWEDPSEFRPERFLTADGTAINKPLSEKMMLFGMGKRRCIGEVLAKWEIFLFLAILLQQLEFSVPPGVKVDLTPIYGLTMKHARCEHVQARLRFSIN

c1ccc2[nH]c(-c3cscn3)nc2c1 [thiabendazole, 2-(4-thiazolyl)-benzimidazole]
oral LD 50 [1]: 3,6 g/kg | administered dose recovered from the feces [2]: about 5% | administered dose recovered from the urine [2]: about 90% | degree of apoptosis relative to the staurosporine control [3]: 58% | viability of the neuronal cells (Renilla luciferase activity) ([4]; 0,8 µM to 50 µM final concentration, 5 h, Fig. 3): did not show any significant effect on the viability | viability of neuronal cells (Renilla luciferase activity) ([4]; final concentration of 1 µM and of 10 µM, Fig. 7): did not show any significantly reduced viability | oral LD 50 [5]: 3,1 g/kg | solubility in water [6]: approximately 50 mg/l | oral LD 50 [7]: 3,8 g/kg | inhibitor of cytochrom P450 1A2 (CyP1A2) [8]: potent inhibitor | degree of apoptosis relative to the staurosporine control ([9]; SH-SY5Y cells, compound 1 µM plus staurosporine 0,5 µM, sham 26 %, Fig. 5): 68% | apoptotic effect by themselves ([9]; compound without staurosporine): Neither thiabendazole nor derivatives thereof exhibited an apoptotic effect by themselves | staurosporine induced apoptosis (caspase-3 and caspase-7 activity) ([10]; 0,8 µM thiabendazole plus 0,1 µM staurosporine): 60% | staurosporine induced apoptosis (caspase-3 and caspase-7 activity) ([10]; 25 µM thiabendazole plus 0,1 µM staurosporine): 10% | staurosporine induced apoptosis (caspase-3 and caspase-7 activity) ([10]; 50 µM thiabendazole plus 0,1 µM staurosporine): 4% | staurosporine induced apoptosis (caspase-3 and caspase-7 activity) ([10]; 100 µM thiabendazole plus 0,1 µM staurosporine): 3% | staurosporine induced apoptosis (caspase-3 and caspase-7 activity) ([10]; 1,6 µM thiabendazole plus 0,1 µM staurosporine): 59% | staurosporine induced apoptosis (caspase-3 and caspase-7 activity) ([10]; 3,1 µM thiabendazole plus 0,1 µM staurosporine): 44% | staurosporine induced apoptosis (caspase-3 and caspase-7 activity) ([10]; 6,3 µM thiabendazole plus 0,1 µM staurosporine): 28% | staurosporine induced apoptosis (caspase-3 and caspase-7 activity) ([10]; 12,5 µM thiabendazole plus 0,1 µM staurosporine): 19%
